{"source": "ChEMBL document CHEMBL1201862", "about": "“PubChem BioAssay data set” (2004)", "assay_in_all_cases": "NCI-60 cell line screen, 48 h", "key": {"786-0": {"test_system": "786-0"}, "A498": {"test_system": "A498"}, "A549": {"test_system": "A549"}, "ACHN": {"test_system": "ACHN"}, "BT-549": {"test_system": "BT-549"}, "CAKI-1": {"test_system": "CAKI-1"}, "CCRF-CEM": {"test_system": "CCRF-CEM"}, "COLO 205": {"test_system": "COLO 205"}, "DU-145": {"test_system": "DU-145"}, "EKVX": {"test_system": "EKVX"}, "HCC 2998": {"test_system": "HCC 2998"}, "HCT-116": {"test_system": "HCT-116"}, "HCT-15": {"test_system": "HCT-15"}, "HL-60": {"test_system": "HL-60"}, "HOP-62": {"test_system": "HOP-62"}, "HOP-92": {"test_system": "HOP-92"}, "HT-29": {"test_system": "HT-29"}, "Hs-578T": {"test_system": "Hs-578T"}, "IGROV-1": {"test_system": "IGROV-1"}, "K562": {"test_system": "K562"}, "KM12": {"test_system": "KM12"}, "LOX IMVI": {"test_system": "LOX IMVI"}, "M14": {"test_system": "M14"}, "MCF7": {"test_system": "MCF7"}, "MDA-MB-231": {"test_system": "MDA-MB-231"}, "MDA-MB-435": {"test_system": "MDA-MB-435"}, "MDA-N": {"test_system": "MDA-N"}, "MOLT-4": {"test_system": "MOLT-4"}, "Malme-3M": {"test_system": "Malme-3M"}, "NCI-H226": {"test_system": "NCI-H226"}, "NCI-H23": {"test_system": "NCI-H23"}, "NCI-H460": {"test_system": "NCI-H460"}, "NCI-H522": {"test_system": "NCI-H522"}, "NCI/ADR-RES": {"test_system": "NCI/ADR-RES"}, "OVCAR-3": {"test_system": "OVCAR-3"}, "OVCAR-4": {"test_system": "OVCAR-4"}, "OVCAR-5": {"test_system": "OVCAR-5"}, "OVCAR-8": {"test_system": "OVCAR-8"}, "PC-3": {"test_system": "PC-3"}, "RPMI-8226": {"test_system": "RPMI-8226"}, "RXF 393": {"test_system": "RXF 393"}, "SF-268": {"test_system": "SF-268"}, "SF-295": {"test_system": "SF-295"}, "SF-539": {"test_system": "SF-539"}, "SK-MEL-28": {"test_system": "SK-MEL-28"}, "SK-MEL-2": {"test_system": "SK-MEL-2"}, "SK-MEL-5": {"test_system": "SK-MEL-5"}, "SK-OV-3": {"test_system": "SK-OV-3"}, "SN12C": {"test_system": "SN12C"}, "SNB-19": {"test_system": "SNB-19"}, "SNB-75": {"test_system": "SNB-75"}, "SR": {"test_system": "SR"}, "SW-620": {"test_system": "SW-620"}, "T47D": {"test_system": "T47D"}, "TK-10": {"test_system": "TK-10"}, "U-251": {"test_system": "U-251"}, "UACC-257": {"test_system": "UACC-257"}, "UACC-62": {"test_system": "UACC-62"}}, "note": "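All cell lines were grown in 96-well plates and treated with compound for 48 hours. GI50 = concentration required for 50% inhibition of growth.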 Calls of active or inactive are those of the source. No stated cut-off is given here; in the data, active = GI50 up to about 1.1 µM and inactive = higher."}
{"compound": "Clc1ccc(/C=N/C23CC4CC(CC(C4)C2)C3)cc1Cl", "values": [{"measurement": "GI50", "setting": "786-0", "result": "> 10 µM (inactive)"}, {"measurement": "GI50", "setting": "A498", "result": "> 10 µM (inactive)"}, {"measurement": "GI50", "setting": "A549", "result": "> 10 µM (inactive)"}, {"measurement": "GI50", "setting": "ACHN", "result": "> 10 µM (inactive)"}, {"measurement": "GI50", "setting": "BT-549", "result": "> 10 µM (inactive)"}, {"measurement": "GI50", "setting": "CAKI-1", "result": "> 10 µM (inactive)"}, {"measurement": "GI50", "setting": "CCRF-CEM", "result": "> 10 µM (inactive)"}, {"measurement": "GI50", "setting": "COLO 205", "result": "> 10 µM (inactive)"}, {"measurement": "GI50", "setting": "DU-145", "result": "> 10 µM (inactive)"}, {"measurement": "GI50", "setting": "EKVX", "result": "> 10 µM (inactive)"}, {"measurement": "GI50", "setting": "HCC 2998", "result": "> 10 µM (inactive)"}, {"measurement": "GI50", "setting": "HCT-116", "result": "> 10 µM (inactive)"}, {"measurement": "GI50", "setting": "HCT-15", "result": "> 10", "unit": "µM"}, {"measurement": "GI50", "setting": "HL-60", "result": "> 10 µM (inactive)"}, {"measurement": "GI50", "setting": "HOP-62", "result": "> 10 µM (inactive)"}, {"measurement": "GI50", "setting": "HOP-92", "result": "> 10 µM (inactive)"}, {"measurement": "GI50", "setting": "HT-29", "result": "> 10 µM (inactive)"}, {"measurement": "GI50", "setting": "Hs-578T", "result": "> 10 µM (inactive)"}, {"measurement": "GI50", "setting": "IGROV-1", "result": "> 10 µM (inactive)"}, {"measurement": "GI50", "setting": "K562", "result": "> 10 µM (inactive)"}, {"measurement": "GI50", "setting": "KM12", "result": "> 10 µM (inactive)"}, {"measurement": "GI50", "setting": "LOX IMVI", "result": "> 10 µM (inactive)"}, {"measurement": "GI50", "setting": "M14", "result": "> 10 µM (inactive)"}, {"measurement": "GI50", "setting": "MCF7", "result": "> 10 µM (inactive)"}, {"measurement": "GI50", "setting": "MDA-MB-231", "result": "> 10 µM (inactive)"}, {"measurement": "GI50", "setting": "MDA-MB-435", "result": "> 10 µM (inactive)"}, {"measurement": "GI50", "setting": "MDA-N", "result": "> 10 µM (inactive)"}, {"measurement": "GI50", "setting": "MOLT-4", "result": "> 10 µM (inactive)"}, {"measurement": "GI50", "setting": "Malme-3M", "result": "> 10 µM (inactive)"}, {"measurement": "GI50", "setting": "NCI-H226", "result": "> 10 µM (inactive)"}, {"measurement": "GI50", "setting": "NCI-H23", "result": "> 10 µM (inactive)"}, {"measurement": "GI50", "setting": "NCI-H460", "result": "> 10 µM (inactive)"}, {"measurement": "GI50", "setting": "NCI-H522", "result": "> 10 µM (inactive)"}, {"measurement": "GI50", "setting": "NCI/ADR-RES", "result": "> 10 µM (inactive)"}, {"measurement": "GI50", "setting": "OVCAR-3", "result": "> 10 µM (inactive)"}, {"measurement": "GI50", "setting": "OVCAR-4", "result": "> 10 µM (inactive)"}, {"measurement": "GI50", "setting": "OVCAR-5", "result": "> 10 µM (inactive)"}, {"measurement": "GI50", "setting": "OVCAR-8", "result": "> 10 µM (inactive)"}, {"measurement": "GI50", "setting": "PC-3", "result": "> 10 µM (inactive)"}, {"measurement": "GI50", "setting": "RPMI-8226", "result": "> 10 µM (inactive)"}, {"measurement": "GI50", "setting": "RXF 393", "result": "> 10 µM (inactive)"}, {"measurement": "GI50", "setting": "SF-268", "result": "> 10 µM (inactive)"}, {"measurement": "GI50", "setting": "SF-295", "result": "> 10 µM (inactive)"}, {"measurement": "GI50", "setting": "SF-539", "result": "> 10 µM (inactive)"}, {"measurement": "GI50", "setting": "SK-MEL-28", "result": "> 10 µM (inactive)"}, {"measurement": "GI50", "setting": "SK-MEL-2", "result": "> 10 µM (inactive)"}, {"measurement": "GI50", "setting": "SK-MEL-5", "result": "> 10 µM (inactive)"}, {"measurement": "GI50", "setting": "SK-OV-3", "result": "> 10 µM (inactive)"}, {"measurement": "GI50", "setting": "SN12C", "result": "> 10 µM (inactive)"}, {"measurement": "GI50", "setting": "SNB-19", "result": "> 10 µM (inactive)"}, {"measurement": "GI50", "setting": "SNB-75", "result": "> 10 µM (inactive)"}, {"measurement": "GI50", "setting": "SR", "result": "> 10 µM (inactive)"}, {"measurement": "GI50", "setting": "SW-620", "result": "> 10 µM (inactive)"}, {"measurement": "GI50", "setting": "T47D", "result": "> 10 µM (inactive)"}, {"measurement": "GI50", "setting": "TK-10", "result": "> 10 µM (inactive)"}, {"measurement": "GI50", "setting": "U-251", "result": "> 10 µM (inactive)"}, {"measurement": "GI50", "setting": "UACC-257", "result": "> 10 µM (inactive)"}, {"measurement": "GI50", "setting": "UACC-62", "result": "> 10 µM (inactive)"}]}
